Experimental data published in patent US9573956B2, “Compounds as dual inhibitors of phosphodiesterases and histone deacetylases” (FUNDACIÓN PARA LA INVESTIGACIÓN MÉDICA APLICADA, priority 2013, dated 2017).

Tests used:
PDE5A = molecular target: T1, PDE5A (Homo sapiens, UniProt O76074); assay: PDE enzyme activity assay (HTRF cGMP), PDE5A; assay type: biochemical; conditions: recombinant enzyme; read-out: PDE5A1 inhibition (IC50)
T1 construct: they are full-length with N-terminal GST tag; GST (N); purchased BPS Biosciences 60050; host or cells: baculovirus infected Sf9 cells

HDAC1 = HDAC1 (Homo sapiens, UniProt Q13547); assay: HDAC enzyme activity assay (fluorogenic substrate), HDAC1; assay type: biochemical; conditions: recombinant enzyme; read-out: HDAC1 inhibition (IC50)
Sequence of HDAC1 (Q13547 whole entry): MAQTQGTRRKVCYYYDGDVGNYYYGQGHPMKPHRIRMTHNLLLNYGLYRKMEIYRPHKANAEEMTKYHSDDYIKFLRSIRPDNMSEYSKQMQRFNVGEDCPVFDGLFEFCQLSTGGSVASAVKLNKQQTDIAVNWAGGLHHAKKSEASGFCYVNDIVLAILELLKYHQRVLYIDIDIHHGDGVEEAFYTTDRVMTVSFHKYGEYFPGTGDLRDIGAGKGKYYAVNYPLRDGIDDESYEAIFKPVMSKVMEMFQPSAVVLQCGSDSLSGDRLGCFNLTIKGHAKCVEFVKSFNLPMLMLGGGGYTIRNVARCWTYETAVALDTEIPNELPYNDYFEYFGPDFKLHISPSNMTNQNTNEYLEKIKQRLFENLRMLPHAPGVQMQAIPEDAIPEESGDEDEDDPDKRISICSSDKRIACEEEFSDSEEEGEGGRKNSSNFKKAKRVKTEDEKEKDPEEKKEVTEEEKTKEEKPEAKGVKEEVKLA

HDAC2 = molecular target: T2, HDAC2 (Homo sapiens, UniProt Q92769); assay: HDAC enzyme activity assay (fluorogenic substrate), HDAC2; assay type: biochemical; conditions: recombinant enzyme; read-out: HDAC2 inhibition (IC50)
T2 construct: NM_001527; Cat. #50002) is full-length with C-terminal his tag; His (C); purchased BPS Biosciences 50002; host or cells: baculovirus infected Sf9 cells
T2 sequence (Q92769 whole entry): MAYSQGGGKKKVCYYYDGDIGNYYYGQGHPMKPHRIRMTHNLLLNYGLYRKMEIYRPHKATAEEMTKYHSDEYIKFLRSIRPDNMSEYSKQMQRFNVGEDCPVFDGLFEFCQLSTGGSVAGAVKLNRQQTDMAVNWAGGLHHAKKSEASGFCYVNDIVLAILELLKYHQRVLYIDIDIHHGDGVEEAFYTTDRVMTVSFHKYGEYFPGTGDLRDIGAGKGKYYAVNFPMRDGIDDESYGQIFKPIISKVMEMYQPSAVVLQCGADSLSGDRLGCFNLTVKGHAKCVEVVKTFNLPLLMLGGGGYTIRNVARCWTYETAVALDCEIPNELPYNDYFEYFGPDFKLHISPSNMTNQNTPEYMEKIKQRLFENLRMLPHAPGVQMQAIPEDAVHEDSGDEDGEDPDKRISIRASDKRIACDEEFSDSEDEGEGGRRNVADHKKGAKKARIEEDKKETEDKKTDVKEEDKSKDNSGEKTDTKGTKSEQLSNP

HDAC6 = molecular target: T3, HDAC6 (Homo sapiens, UniProt Q9UBN7); assay: HDAC enzyme activity assay (fluorogenic substrate), HDAC6; assay type: biochemical; conditions: recombinant enzyme; read-out: HDAC6 inhibition (IC50)
T3 construct: BC069243; Cat. #50006) is full-length with N-terminal GST tag; GST (N); purchased BPS Biosciences 50006; host or cells: baculovirus infected Sf9 cells
T3 sequence (Q9UBN7 1-1215): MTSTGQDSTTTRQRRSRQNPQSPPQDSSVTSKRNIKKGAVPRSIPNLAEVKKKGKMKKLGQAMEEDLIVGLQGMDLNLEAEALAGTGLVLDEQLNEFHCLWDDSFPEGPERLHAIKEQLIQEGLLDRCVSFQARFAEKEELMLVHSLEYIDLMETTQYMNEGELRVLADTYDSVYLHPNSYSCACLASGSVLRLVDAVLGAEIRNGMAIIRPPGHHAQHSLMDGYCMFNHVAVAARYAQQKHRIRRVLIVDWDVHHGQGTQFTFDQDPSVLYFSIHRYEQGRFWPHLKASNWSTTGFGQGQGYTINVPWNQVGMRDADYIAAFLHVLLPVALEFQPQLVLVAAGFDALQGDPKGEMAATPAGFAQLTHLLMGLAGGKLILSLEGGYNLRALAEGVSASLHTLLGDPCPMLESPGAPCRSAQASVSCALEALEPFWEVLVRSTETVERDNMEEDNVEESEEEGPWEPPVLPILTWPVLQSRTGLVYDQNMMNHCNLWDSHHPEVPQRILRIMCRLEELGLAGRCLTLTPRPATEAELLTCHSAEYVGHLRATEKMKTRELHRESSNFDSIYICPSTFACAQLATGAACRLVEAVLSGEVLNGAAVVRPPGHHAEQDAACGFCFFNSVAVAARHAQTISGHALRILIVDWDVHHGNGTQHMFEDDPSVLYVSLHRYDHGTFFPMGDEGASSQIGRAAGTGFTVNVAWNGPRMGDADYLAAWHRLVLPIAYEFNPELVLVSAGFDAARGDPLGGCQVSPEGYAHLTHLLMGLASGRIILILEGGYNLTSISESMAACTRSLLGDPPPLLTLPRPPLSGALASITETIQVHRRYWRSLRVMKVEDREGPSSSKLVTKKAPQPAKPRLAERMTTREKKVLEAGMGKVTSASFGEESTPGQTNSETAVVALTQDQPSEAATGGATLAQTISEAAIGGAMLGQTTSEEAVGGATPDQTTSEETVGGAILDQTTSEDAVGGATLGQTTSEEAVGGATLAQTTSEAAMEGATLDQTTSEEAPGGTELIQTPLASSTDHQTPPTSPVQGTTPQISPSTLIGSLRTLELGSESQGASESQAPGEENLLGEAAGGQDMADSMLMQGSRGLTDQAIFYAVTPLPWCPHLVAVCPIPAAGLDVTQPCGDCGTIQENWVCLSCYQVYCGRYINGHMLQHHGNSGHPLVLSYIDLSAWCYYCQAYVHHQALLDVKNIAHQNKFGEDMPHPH

pCREB = assay: PDE activity in wild type primary neurons (Western blot pCREB); assay type: cell-based; conditions: Mus musculus, Neuron, 0.5 h, 30 min, EC50 = 50% increase in pCREB over basal
[1] = tested on: acetylated histone 3 at Lys9 (AcH3K9); assay: HDAC activity in wild type primary neurons (Western blot AcH3K9); assay type: cell-based, mouse; conditions: Mus musculus, Neuron, 0.5 h, 30 min, EC50 = 50% increase in AcH3K9 over basal, read-out: AcH3 (EC50)
HDAC3 = molecular target: T4, HDAC3 (Homo sapiens, UniProt O15379); assay: HDAC enzyme activity assay (fluorogenic substrate), HDAC3; assay type: biochemical; conditions: recombinant enzyme; read-out: HDAC3 inhibition (IC50)
T4 construct: is full-length with C-terminal his tag and human NCOR2, N-terminal GST tag; His (C); purchased BPS Biosciences 50003; host or cells: baculovirus infected Sf9 cells
T4 sequence (O15379 whole entry): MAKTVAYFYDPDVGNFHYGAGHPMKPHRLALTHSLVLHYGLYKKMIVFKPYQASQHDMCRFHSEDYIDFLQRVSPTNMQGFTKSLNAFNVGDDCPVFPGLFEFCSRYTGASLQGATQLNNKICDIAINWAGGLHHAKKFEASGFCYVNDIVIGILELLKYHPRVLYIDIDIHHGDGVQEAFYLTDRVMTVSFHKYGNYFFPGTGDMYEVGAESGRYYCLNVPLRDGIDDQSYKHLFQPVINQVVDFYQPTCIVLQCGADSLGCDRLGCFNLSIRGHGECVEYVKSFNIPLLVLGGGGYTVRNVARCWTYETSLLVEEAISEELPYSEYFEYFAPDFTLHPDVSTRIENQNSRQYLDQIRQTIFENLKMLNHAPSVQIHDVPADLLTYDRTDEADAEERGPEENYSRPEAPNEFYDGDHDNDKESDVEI
T4 sequence (Q9Y618 395-489 partner limits assumed): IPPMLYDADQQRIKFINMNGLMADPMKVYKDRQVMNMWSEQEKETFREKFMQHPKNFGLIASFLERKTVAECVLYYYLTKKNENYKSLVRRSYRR

PDE9A isoform b = molecular target: T5, PDE9A isoform b (Homo sapiens, UniProt O76083); assay: PDE enzyme activity assay (HTRF cGMP), PDE9A; assay type: biochemical; conditions: recombinant enzyme; read-out: PDE9A inhibition (IC50)
T5 construct: they are full-length with N-terminal GST tag; GST (N); purchased BPS Biosciences 60090; host or cells: baculovirus infected Sf9 cells
T5 sequence (O76083 1-533 isoform O76083-2): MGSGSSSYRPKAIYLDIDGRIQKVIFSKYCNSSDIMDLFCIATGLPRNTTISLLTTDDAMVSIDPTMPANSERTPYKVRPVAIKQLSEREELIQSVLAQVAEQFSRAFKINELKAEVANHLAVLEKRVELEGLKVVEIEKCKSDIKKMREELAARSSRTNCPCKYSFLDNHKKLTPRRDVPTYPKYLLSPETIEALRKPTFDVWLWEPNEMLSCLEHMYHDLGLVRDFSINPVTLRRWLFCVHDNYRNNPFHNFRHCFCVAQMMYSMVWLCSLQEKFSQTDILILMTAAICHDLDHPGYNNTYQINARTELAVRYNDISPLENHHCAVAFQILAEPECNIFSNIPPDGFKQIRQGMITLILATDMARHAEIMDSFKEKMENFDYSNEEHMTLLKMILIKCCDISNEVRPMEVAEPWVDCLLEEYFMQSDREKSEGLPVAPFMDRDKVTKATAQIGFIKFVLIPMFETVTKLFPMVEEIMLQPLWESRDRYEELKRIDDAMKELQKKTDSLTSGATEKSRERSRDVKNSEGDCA

Compound | IC50 (PDE5A) [nM] | IC50 (HDAC1) [nM] | IC50 (HDAC2) [nM] | IC50 (HDAC6) [nM] | EC50 (pCREB) [nM] | EC50 [1] [nM] | IC50 (HDAC3) [nM] | IC50 (PDE9A isoform b) [nM]
CCCc1nn(C)c2c(=O)[nH]c(-c3cc(CC4CCC(C(=O)NO)CC4)ccc3OCC)nc12 (stereo not shown) [Example 1-29, 4-[[4-ethoxy-3-(1-methyl-7-oxo-3-propyl-6H-pyrazolo[4,3-d]pyrimidin-5-yl)phenyl]methyl]cyclohexanecarbohydroxamic acid] | 10 to 1000 | 10 to 1000 | > 10000 | 10 to 1000 | 1000 to 10000 | 1000 to 10000 |  | 
CCCc1nn(C)c2c(=O)[nH]c(-c3cc(Cc4ccc(CC(=O)NO)cc4)ccc3OCC)nc12 [Example 1-18] | 10 to 1000 | > 10000 | > 10000 | 10 to 1000 |  |  | > 10000 | 
CC(c1nc2c(cnn2C2CCOCC2)c(=O)[nH]1)N1CC(Cc2ccc(C(=O)NO)cc2)C1 (stereo not shown) [Example 3-15] |  | 1000 to 10000 | 1000 to 10000 | 10 to 1000 |  |  |  | 10 to 1000
CCCc1nn(C)c2c(=O)[nH]c(-c3cc(-c4ccc(C(=O)NO)cc4)ccc3OCC)nc12 [Example 1-30] | < 10 | 10 to 1000 | 1000 to 10000 | 10 to 1000 | 10 to 1000 | 10 to 1000 |  | 
CCCc1nn(C)c2c(=O)[nH]c(-c3cc(S(=O)(=O)Nc4ccc(/C=C/C(=O)NO)cc4)ccc3OCC)nc12 [Example 1-03] | < 10 | 10 to 1000 | 10 to 1000 |  |  |  |  | 1000 to 10000
O=C(NO)c1cnc(N2CCC(CN3CC(=O)N4[C@H](c5ccc6c(c5)OCO6)c5[nH]c6ccccc6c5C[C@@H]4C3=O)CC2)nc1 [Example 4-05] | 10 to 1000 | 10 to 1000 | 10 to 1000 | 10 to 1000 |  |  |  | > 10000
CC1CN(CC2CC(C(=O)NO)C2)CC1c1nc2c(cnn2C2CCOCC2)c(=O)[nH]1 (racemic) [Example 3-12] |  | 1000 to 10000 | > 10000 | 1000 to 10000 |  |  |  | 10 to 1000
CC(c1nc2c(cnn2C2CCOCC2)c(=O)[nH]1)N1CC(Cc2ccc(C(=O)NO)s2)C1 (stereo not shown) [Example 3-16] |  | 1000 to 10000 | 1000 to 10000 | 1000 to 10000 |  |  |  | 10 to 1000
CCCc1nc(C)c2c(=O)[nH]c(-c3cc(CC4CC(C(=O)NO)C4)ccc3OCC)nn12 (stereo not shown) [Example 2-07, 3-[[4-ethoxy-3-(5-methyl-4-oxo-7-propyl-3H-imidazo[5,1-f][1,2,4]triazin-2-yl)phenyl]methyl]cyclobutanecarbohydroxamic acid] | < 10 | 10 to 1000 | 1000 to 10000 | 10 to 1000 | 10 to 1000 | 10 to 1000 |  | 
CCCc1nc(C)c2c(=O)[nH]c(-c3cc(S(=O)(=O)N4CCN(CCCC(=O)NO)CC4)ccc3OCC)nn12 [Example 2-02, 4-[4-[4-ethoxy-3-(5-methyl-4-oxo-7-propyl-3H-imidazo[5,1-f][1,2,4]triazin-2-yl)phenyl]sulfonylpiperazin-1-yl]butanehydroxamic acid] | < 10 | 10 to 1000 |  |  |  |  |  | 10 to 1000
CCCc1nn(C)c2c(=O)[nH]c(-c3cc(CC4CCN(c5ncc(C(=O)NO)cn5)CC4)ccc3OCC)nc12 [Example 1-24, 2-[4-[[4-ethoxy-3-(1-methyl-7-oxo-3-propyl-6H-pyrazolo[4,3-d]pyrimidin-5-yl)phenyl]methyl]-1-piperidyl]pyrimidine-5-carbohydroxamic acid] | < 10 | 10 to 1000 | 10 to 1000 | 1000 to 10000 |  |  | 10 to 1000 | 
CCCc1nn(C)c2c(=O)[nH]c(-c3cc(C4CCC(C(=O)NO)CC4)ccc3OCC)nc12 (stereo not shown) [Example 1-40, 4-[4-ethoxy-3-(1-methyl-7-oxo-3-propyl-6H-pyrazolo[4,3-d]pyrimidin-5-yl)phenyl]cyclohexanecarbohydroxamic acid] | 10 to 1000 | 1000 to 10000 | > 10000 | 10 to 1000 | 1000 to 10000 | 10 to 1000 |  | 
CCCc1nc(C)c2c(=O)[nH]c(-c3cc(S(=O)(=O)Nc4ccc(/C=C/C(=O)NO)cc4)ccc3OCC)nn12 [Example 2-03] | < 10 | 10 to 1000 |  |  |  |  |  | 1000 to 10000
C[C@@H]1CN(Cc2ccc(C(=O)NO)cc2)C[C@H]1c1nc2c(cnn2C2CCCC2)c(=O)[nH]1 (racemic) [Example 3-11] |  |  |  | 10 to 1000 |  |  |  | 10 to 1000
C[C@@H]1CN(Cc2ccc(C(=O)NO)s2)C[C@H]1c1nc2c(cnn2C2CCOCC2)c(=O)[nH]1 (racemic) [Example 3-10] |  |  |  | 10 to 1000 |  |  |  | 10 to 1000
CCCc1nn(C)c2c(=O)[nH]c(-c3cc(NC4CCN(c5ncc(C(=O)NO)cn5)CC4)ccc3OCC)nc12 [Example 1-22, 2-[4-[4-ethoxy-3-(1-methyl-7-oxo-3-propyl-6H-pyrazolo[4,3-d]pyrimidin-5-yl)anilino]-1-piperidyl]pyrimidine-5-carbohydroxamic acid] | < 10 | 10 to 1000 | 10 to 1000 | 10 to 1000 |  |  | 10 to 1000 | 
C[C@H]1CN(Cc2ccc(C(=O)NO)cc2)C[C@@H]1c1nc2c(cnn2C2CCOCC2)c(=O)[nH]1 (racemic) [Example 3-09, 4-[[(3R,4R)-3-methyl-4-(4-oxo-1-tetrahydropyran-4-yl-5H-pyrazolo[3,4-d]pyrimidin-6-yl)pyrrolidin-1-yl]methyl]benzenecarbohydroxamic acid] |  |  |  | 10 to 1000 |  |  |  | 10 to 1000
CCCc1nn(C)c2c(=O)[nH]c(-c3cc(Cc4ccc(C(=O)NO)o4)ccc3OCC)nc12 [Example 1-17] | < 10 | 1000 to 10000 | > 10000 | 10 to 1000 |  |  | > 10000 | 
CC(c1nc2c(cnn2C2CCOCC2)c(=O)[nH]1)N1CC(Oc2ccc(C(=O)NO)cc2)C1 (stereo not shown) [Example 3-13] |  | 10 to 1000 | 1000 to 10000 | 10 to 1000 |  |  |  | 10 to 1000
CC1CN(Cc2ccc(C(=O)NO)s2)CC1c1nc2c(cnn2C2CCCC2)c(=O)[nH]1 (racemic) [Example 3-17] |  | 10 to 1000 | 1000 to 10000 | 10 to 1000 |  |  |  | < 10
CCCc1nn(C)c2c(=O)[nH]c(-c3cc(CN4CCN(c5ncc(C(=O)NO)cn5)CC4)ccc3OCC)nc12 [Example 1-48, 2-[4-[[4-ethoxy-3-(1-methyl-7-oxo-3-propyl-6H-pyrazolo[4,3-d]pyrimidin-5-yl)phenyl]methyl]piperazin-1-yl]pyrimidine-5-carbohydroxamic acid] | < 10 | 10 to 1000 | 10 to 1000 | 10 to 1000 | 10 to 1000 | 10 to 1000 |  | 
CCCc1nn(C)c2c(=O)[nH]c(-c3cc(S(=O)(=O)NC4CCN(c5ncc(C(=O)NO)cn5)CC4)ccc3OCC)nc12 [Example 1-07] | < 10 | 10 to 1000 | 10 to 1000 | 10 to 1000 |  |  | 10 to 1000 | 1000 to 10000
